Assay results: US20220112175A1, “PYRIDAZINES HERBICIDAL COMPOUNDS” (SYNGENTA CROP PROTECTION AG, priority 2019, published 2022)
Like-named read-outs stand apart in the source and are kept apart here.

Legend:
Test in all cases: Post-emergence efficacy, glasshouse pot test
Format in all cases: in vivo
[1] = tested on: Echinochloa crus-galli (ECHCG); conditions: 312 h, read-out: Post-emergence efficacy ECHCG (100=total damage to plant; 0=no damage to plant)
Procedure: (§1) Seeds of a variety of test species were sown in standard soil in pots. After cultivation for 14 days (post-emergence) under controlled conditions in a glasshouse (at 24/16° C., day/night; 14 hours light; 65% humidity), the plants were sprayed with an aqueous spray solution derived from the dissolution of the technical active ingredient formula (I) in a small amount of acetone and a special solvent and emulsifier mixture referred to as IF50 (11.12% Emulsogen EL360 TM+44.44% N-methylpyrrolidone+44.44% Dowanol DPM glycol ether), to create a 50 g/l solution which was then diluted to required concentration using 0.25% or 1% Empicol ESC70 (Sodium lauryl ether sulphate)+1% ammonium sulphate as diluent.
(§2) The test plants were then grown in a glasshouse under controlled conditions (at 24/16° C., day/night; 14 hours light; 65% humidity) and watered twice daily. After 13 days the test was evaluated (100=total damage to plant; 0=no damage to plant).
(§3) Ipomoea hederacea (IPOHE), Euphorbia heterophylla (EPHHL), Chenopodium album (CHEAL), Amaranthus palmeri (AMAPA), Lolium perenne (LOLPE), Digitaria sanguinalis (DIGSA), Eleusine indica (ELEIN), Echinochloa crus-galli (ECHCG), Setaria faberi (SETFA)

[2] = tested on: Digitaria sanguinalis (DIGSA); conditions: 312 h, read-out: Post-emergence efficacy DIGSA (100=total damage to plant; 0=no damage to plant)
Procedure: as §1, §2, §3

[3] = tested on: Lolium perenne (LOLPE); conditions: 312 h, read-out: Post-emergence efficacy LOLPE (100=total damage to plant; 0=no damage to plant)
Procedure: as §1, §2, §3

[4] = tested on: Setaria faberi (SETFA); conditions: 312 h, read-out: Post-emergence efficacy SETFA (100=total damage to plant; 0=no damage to plant)
Procedure: as §1, §2, §3

[5] = tested on: Eleusine indica (ELEIN); conditions: 312 h, read-out: Post-emergence efficacy ELEIN (100=total damage to plant; 0=no damage to plant)
Procedure: as §1, §2, §3

[6] = tested on: Ipomoea hederacea (IPOHE); conditions: 312 h, read-out: Post-emergence efficacy IPOHE (100=total damage to plant; 0=no damage to plant)
Procedure: as §1, §2, §3

[7] = tested on: Euphorbia heterophylla (EPHHL); conditions: 312 h, read-out: Post-emergence efficacy EPHHL (100=total damage to plant; 0=no damage to plant)
Procedure: as §1, §2, §3

[8] = tested on: Chenopodium album (CHEAL); conditions: 312 h, read-out: Post-emergence efficacy CHEAL (100=total damage to plant; 0=no damage to plant)
Procedure: as §1, §2, §3

[9] = tested on: Amaranthus palmeri (AMAPA); conditions: 312 h, read-out: Post-emergence efficacy AMAPA (100=total damage to plant; 0=no damage to plant)
Procedure: as §1, §2, §3

[10] = Application rate 500 g/Ha, post-emergence spray, evaluated after 13 days

Compound | pest or weed control at 500 g/ha [1, 10] [%] | pest or weed control at 500 g/ha [2, 10] [%] | pest or weed control at 500 g/ha [3, 10] [%] | pest or weed control at 500 g/ha [4, 10] [%] | pest or weed control at 500 g/ha [5, 10] [%] | pest or weed control at 500 g/ha [6, 10] [%] | pest or weed control at 500 g/ha [7, 10] [%] | pest or weed control at 500 g/ha [8, 10] [%] | pest or weed control at 500 g/ha [9, 10] [%] | pest or weed control at 500 g/ha ([1]; post-emergence) [%] | pest or weed control at 500 g/ha ([2]; post-emergence) [%] | pest or weed control at 500 g/ha ([3]; post-emergence) [%] | pest or weed control at 500 g/ha ([4]; post-emergence) [%] | pest or weed control at 500 g/ha ([5]; post-emergence) [%] | pest or weed control at 500 g/ha ([6]; post-emergence) [%] | pest or weed control at 500 g/ha ([7]; post-emergence) [%] | pest or weed control at 500 g/ha ([8]; post-emergence) [%] | pest or weed control at 500 g/ha ([9]; post-emergence) [%]
CC(C)(NC(=O)C[n+]1ccc(-c2ncsn2)cn1)C(=O)O [Compound A21] | 30 | 30 | 40 | 100 | 40 | 70 | 80 | 90 | 100 | – | – | – | – | – | – | – | – | –
CC(NC(=O)C[n+]1ccc(-c2ncsn2)cn1)C(=O)O (stereo not drawn) [Compound A19] | 80 | 80 | 40 | 90 | 80 | 50 | 90 | 90 | 100 | – | – | – | – | – | – | – | – | –
Cn1cnc(-c2cc[n+](CSCCC(=O)O)nc2)n1 [Compound A7] | 100 | 100 | 70 | 100 | 90 | 20 | 70 | 90 | 100 | – | – | – | – | – | – | – | – | –
CC(NC(=O)CC[n+]1ccc(-c2ncsn2)cn1)C(=O)O (stereo not drawn) [Compound A20] | 100 | 100 | 90 | 100 | 90 | 60 | 80 | 100 | 100 | – | – | – | – | – | – | – | – | –
CC(C)(NC(=O)C[n+]1ccc(-c2nccs2)cn1)C(=O)O [Compound A9] | 30 | 40 | 30 | 40 | 70 | 20 | 80 | 50 | 100 | – | – | – | – | – | – | – | – | –
CC(NC(=O)CC[n+]1ccc(-c2nccs2)cn1)C(=O)O (stereo not drawn) [Compound A16] | 100 | 100 | 60 | 100 | 100 | 20 | 40 | 90 | 100 | – | – | – | – | – | – | – | – | –
CC(NC(=O)C[n+]1ccc(-c2nccs2)cn1)C(=O)O (stereo not drawn) [Compound A10] | 60 | 40 | 20 | 40 | 40 | 60 | 90 | 90 | 100 | – | – | – | – | – | – | – | – | –
O=C(C[n+]1ccc(-c2ncsn2)cn1)NC1(C(=O)O)CC1 [Compound A24] | 80 | 100 | 50 | 80 | 70 | 90 | 90 | 90 | 100 | – | – | – | – | – | – | – | – | –
Cn1cnc(-c2cc[n+](CSCC(=O)O)nc2)n1 [Compound A8, 2-[[4-(1-methyl-1,2,4-triazol-3-yl)pyridazin-1-ium-1-yl]methylsulfanyl]acetic acid chloride] | 100 | 100 | 70 | 100 | 100 | 30 | 70 | 90 | 100 | – | – | – | – | – | – | – | – | –
O=C(O)CNC(=O)CC[n+]1ccc(-c2nccs2)cn1 [Compound A14] | 100 | 100 | 50 | 90 | 100 | 70 | 100 | 90 | 100 | – | – | – | – | – | – | – | – | –
O=C(O)CNC(=O)C[n+]1ccc(-c2nccs2)cn1 [Compound A12] | 90 | 40 | 50 | 50 | 70 | 70 | 100 | 90 | 100 | – | – | – | – | – | – | – | – | –
CN(CC(=O)O)C(=O)C[n+]1ccc(-c2nccs2)cn1 [Compound A11] | 50 | 40 | 30 | 50 | 50 | 20 | 90 | 20 | 90 | – | – | – | – | – | – | – | – | –
Cn1cnc(-c2cc[n+](CC(=O)NCCS(=O)(=O)[O-])nc2)n1 [Compound A5, 2-[[2-[4-(1-methyl-1,2,4-triazol-3-yl)pyridazin-1-ium-1-yl]acetyl]amino]ethanesulfonate] | 100 | 90 | 50 | 90 | 60 | 20 | 60 | 80 | 90 | – | – | – | – | – | – | – | – | –
O=C(O)CNC(=O)CC[n+]1ccc(-c2ncco2)cn1 [Compound A13] | 100 | 100 | 60 | 100 | 90 | 60 | 90 | 100 | 100 | – | – | – | – | – | – | – | – | –
Cn1cnc(-c2cc[n+](CC(=O)NCC(=O)O)nc2)n1 [Compound A2, 2-[[2-[4-(1-methyl-1,2,4-triazol-3-yl)pyridazin-1-ium-1-yl]acetyl]amino]acetic acid chloride] | – | – | – | – | – | – | – | – | – | 100 | 100 | 40 | 100 | 80 | 40 | 50 | 70 | 100
CN(CC(=O)O)C(=O)C[n+]1ccc(-c2ncn(C)n2)cn1 [Compound A3] | 100 | 100 | 30 | 100 | 90 | 40 | 50 | 100 | 100 | – | – | – | – | – | – | – | – | –
